Patent US10344330B2, “Glatiramer acetate response biomarker mRNA potency assay” (Mylan Inc., priority 2013, dated 2019)

Tests used:
[1] = test system: mouse IFN-γ mRNA in primary LN cells; test: Validation: mouse IFN-γ mRNA by real-time PCR in LN cells of GA-immunized SJL/J mice (Example IV); type: cell-based; conditions: for IFN-γ mRNA Fold Change: normalized to GAPDH
Method: Three experiments were conducted using one batch of GA (Mylan GMA). The primary LN cells were stimulated by incubation with 6 concentrations (0.3 to 20 μg/mL) of the GA for 6 hours at 37° C. Total RNA was isolated from LN cells stimulated with GA or controls. cDNA was synthesized from the RNA and the mRNA levels of seven mouse cytokines, IL-2, IL-4, IL-5, IL-10, IL-13, interferon (IFN)-γ and tumor necrosis factor (TNF)-α, were quantitatively measured by a real-time PCR method.
Female SJL/J mice at 8-9 weeks of age were immunized by injection into four footpads using a 1 mL syringe with a 27-G, ½-inch needle. Each mouse received a total injection volume of 0.1 mL of GMA emulsified in CFA (about 10 μL into each of the front footpads and 40 μL into each of the hind footpads). Animals were immunized on Day 0. After injection, animals were placed back in their cages and housed ≤6 animals per cage.
Immunized animals were sacrificed by cervical dislocation on Day 10 following immunization. […] After centrifugation at about 200×g for 10 minutes at 4° C., the cell pellet was re-suspended in 40 mL of DCCM-1 medium for cell counting. A Trypan blue exclusion method was used to determine the cell density of viable cells in the suspension. After cell counting, the LN cells were suspended in enriched DCCM-1 medium at density of 7.5×10^6 cells/mL. LN cells (0.12 mL) were plated into each well of 96-well tissue culture plates.
Dilutions of GA (Mylan GMA) were prepared using enriched DCCM-1 medium as the diluent. GA dilutions (0.12 mL) were added in the assigned wells of 96-well tissue culture plates. The same volume of LN cells (0.12 mL) isolated from immunized animals was added to the assigned wells. A positive control and a negative control were always performed in the same assay by treating LN cells with 2.5 μg/mL ConA and 10 μg/mL MBP, respectively. The LN cells with mock stimulation protocols (enriched DCCM-1 medium) were used to monitor the background mRNA level of a cytokine. The plates were incubated at 37° C. in a humidified 5% CO2 incubator for 6 hr.
At the end of incubation time, culture medium from stimulated cells was removed by aspiration and the cells were lysed using Qiagen or Promega lysis buffer. The lysate was transferred to an RNeasy Mini column (Qiagen) or wells of the SV 96 Binding Plate (Promega) for RNA isolation and cDNA synthesis. All tested samples were run in triplicate.
The SV 96 Total RNA Isolation System (Promega; Cat. No. Z3505) was used for total RNA isolation. Assay procedures were carried out according to each manufacturer's protocol. RNA samples were stored at −70° C. until use. […] The assay procedure was carried out according to the manufacturer's protocol.
The plate was centrifuged at 2000 rpm for 2 minutes at 4° C. to spin down the contents and eliminate air bubbles. Samples were prepared and run in a 96-well plate using a Life Technologies Real-Time PCR system (previously Applied Biosystems; Model No. 7500) according to the manufacturer's recommendation. The mix for the reference gene was prepared in the same way using the reference gene primer.
A relative quantitation method was used to analyze changes in mIL-2, mIL-4, mIL-5, mIL-10, mIL-13, mIFN-γ and TNF-α expression in GA treated samples relative to the untreated control (Enriched DCCM-1 treated) samples using the following program:
Levels of mouse cytokine amplicons were normalized to an internal probe level (GAPDH) from the same samples. The following equations were used to calculate the relative increase in response to GA stimulation compared to the control sample (Enriched DCCM1 sample): […]

[2] = test system: mIL-4 mRNA in primary LN cells; test: mIL-4 mRNA by real-time PCR in stimulated LN cells of immunized (SJL/J×BALB/C)F1 mice (Example I); type: cell-based, mouse; conditions: for mIL-4 mRNA Level: Experiment 1, GA-immunized (SJL/J×BALB/C)F1; for mIL-4 mRNA: reference 18S rRNA
Method: For each of the three experiments summarized in Table 1, female (SJL/J×BALB/C) F1 hybrid (Jackson Laboratory) mice were immunized by footpad injection with either 250 μg GMA (Mylan Pharmaceuticals, Inc.) and CFA (Sigma Aldrich), or Mannitol and CFA (as a negative control). The GA solution was diluted to 5 mg/mL with Dulbecco's Phosphate-buffered saline. A dose solution was then prepared by mixing the diluted GA solution (5 mg/mL) and CFA (1:1) until well-emulsified. Each mouse received a total injection volume of 0.1 mL (250 μg GA). Animals were immunized on Day 0. Immunized animals were sacrificed via cervical dislocation on Day 10 following immunization. […] The LN were washed 3 times with −5 mL of RPMI medium, and the LN cells isolated by pressing the LN with a syringe plunger. […] The cell suspension was centrifuged at about 200×g for 10 minutes at about 4° C. and re-suspended in ice cold enriched DCCM-1 medium. The LN cells (2.5×10^6 cells/cm^2) were plated in the wells of a 48-well tissue culture plate and stimulated with GA or controls.
Expression of cytokine mRNA was quantitatively analyzed using a Real-Time PCR system (7500, Applied Biosystems).
(DCCM1 from Beit Haemek Ltd.; Cat. No. 05 010 1A). There was no MBP treatment for the 2-hour groups.
Group 1B animals were female (SJL/J×BALB/C) F1 hybrid (Jackson Laboratory) mice immunized by footpad injection with either 250 μg GA and CFA, or Mannitol and CFA (as a negative control). A dose solution was prepared by mixing a diluted GA solution (5 mg/mL) and CFA (1:1). Each mouse received a total injection volume of […] (250 μg GA). Animals were immunized on Day 0. Immunized animals were sacrificed via cervical dislocation on Day 10 following immunization. Lymph nodes from immunized mice were removed and isolated. LN cells (2.5×10^6 cells/cm^2) were plated in the wells of a 48-well tissue culture plate for stimulation with GA.
Expression of cytokine mRNA was quantitatively analyzed 4 and 6 hours after using a Real-Time PCR system (7500, Applied Biosystems).

[3] = 2 hour post stimulation, GA 10, ConA 2.5 μg/mL
[4] = 4 hour post stimulation, GA 10, MBP 10, ConA 2.5 μg/mL
[5] = 6 hour post stimulation, GA 10, MBP 10, ConA 2.5 μg/mL
[6] = 24 hour post stimulation, GA 10, MBP 10, ConA 2.5 μg/mL
[7] = Group 1B (GA + CFA), 4 hours post-stimulation, GA 10, MBP 10, ConA 2.5 μg/mL
[8] = Group 1B (GA + CFA), 6 hours post-stimulation, GA 10, MBP 10, ConA 2.5 μg/mL
[9] = Group 2B (Mannitol + CFA), 4 hours post-stimulation, GA 10, MBP 10, ConA 2.5 μg/mL
[10] = Group 2B (Mannitol + CFA), 6 hours post-stimulation, GA 10, MBP 10, ConA 2.5 μg/mL

Molecule | induction of IFN-γ mRNA (in words) ([1]; SJL/J, different concentrations of GA vs unstimulated LN cells) | induction of IFN-γ mRNA ([1]; SJL/J, stimulation with 2.5 to 10 μg/mL GA, three experiments) | mIL-4 mRNA Level [2, 3] | mIL-4 mRNA Level [2, 4] | mIL-4 mRNA Level [2, 5] | mIL-4 mRNA Level [2, 6] | mIL-4 mRNA [2, 7] | mIL-4 mRNA [2, 8] | mIL-4 mRNA level increase vs DCCM-1-stimulated control ([2]; Group 1B, 4 and 6 hours (summary of Table 9)) | mIL-4 mRNA [2, 9] | mIL-4 mRNA [2, 10] | IFN-γ mRNA Fold Change ([1]; Experiment 1, 2.5 μg/mL) | IFN-γ mRNA Fold Change ([1]; Experiment 2, 2.5 μg/mL) | IFN-γ mRNA Fold Change ([1]; Experiment 3, 2.5 μg/mL) | IFN-γ mRNA Fold Change ([1]; Experiment 1, 10 μg/mL) | IFN-γ mRNA Fold Change ([1]; Experiment 2, 10 μg/mL) | IFN-γ mRNA Fold Change ([1]; Experiment 3, 10 μg/mL) | IFN-γ mRNA expression level in response to MBP treatment ([1]; SJL/J, MBP 10 μg/mL, all PCR runs)
L-glutamic acid polymer with L-alanine, L-lysine and L-tyrosine, acetate (salt) [GA] | weak induction | ≥ 2 fold | 10.0 fold change vs control | 10.0 fold change vs control | 16.5 fold change vs control | 14.1 fold change vs control | 8.2 fold change vs control | 9.2 fold change vs control | at least 8 fold | 2.2 fold change vs control | 1.1 fold change vs control | – | – | – | – | – | – | –
Concanavalin A [ConA, reference compound] | – | – | 35.7 fold change vs control | 47.6 fold change vs control | 52.2 fold change vs control | 6.1 fold change vs control | 27.1 fold change vs control | 12.8 fold change vs control | – | 37.3 fold change vs control | 56.2 fold change vs control | 1.9 fold | 1.6 fold | 2.6 fold | – | – | – | –
MBP: myelin basic protein, a negative control (protein, UniProt P02686 1-304, looked up) Myelin basic protein: MGNHAGKRELNAEKASTNSETNRGESEKKRNLGELSRTTSEDNEVFGEADANQNNGTSSQDTAVTDSKRTADPKNAWQDAHPADPGSRPHLIRLFSRDAPGREDNTFKDRPSESDELQTIQEDSAATSESLDVMASQKRPSQRHGSKYLATASTMDHARHGFLPRHRDTGILDSIGRFFGGDRGAPKRGSGKDSHHPARTAHYGSLPQKSHGRTQDENPVVHFFKNIVTPRTPPPSQGKGRGLSLSRFSWGAEGQRPGFGYGGRASDYKSAHKGFKGVDAQGTLSKIFKLGGRDSRSGSPMARR | – | – | – | 0.8 fold change vs control | 0.6 fold change vs control | 1.1 fold change vs control | 0.5 fold change vs control | 0.3 fold change vs control | – | 1.4 fold change vs control | 0.8 fold change vs control | – | – | – | 0.8 fold | 1.3 fold | 1.1 fold | ≤ 2 fold
